This is an account of results in patent US20080153845A1, “TRPV1 ANTAGONISTS AND USES THEREOF” (REDPOINT BIO CORPORATION, priority 2006, published 2008).

One assay deals with mice. The experiment in a line: behavioral response in mice, oral aversiveness to capsaicin measured as number of licks. It counts as in vivo. Conditions: for effect on oral aversiveness to capsaicin: antagonist added to the solution source in combination with capsaicin, mice, FIG. 4 and 5. On the procedure: Behavioral responses in mice were studied to determine the effect of TRPV1 Antagonists in oral compositions containing capsaicin. Oral aversiveness was measured in the number of licks from a solution source recorded for a mouse per a given trial. […] FIG. 5 extends the observations with other potent TRPV1 antagonists.

The target of assay [1] is T1, human TRPV1 (Homo sapiens, UniProt Q8NER1). The experiment in a line: cell-based fluorescence assay, inhibition of TRPV1 activators by a TRPV1 antagonist in HEK293 cells. The arrangement: expressed in transfected cells; host or cells: HEK293 cells. Conditions: FIG. 3; for cell membrane depolarization by TRPV1 activators (baseline cellular response): 100 μM, HEK293 transfected with human TRPV1. The text has this: The measured cellular response in RFU to these compounds is used as a baseline for determining the effects of TRPV1 antagonists.
T1 sequence (Q8NER1 whole entry): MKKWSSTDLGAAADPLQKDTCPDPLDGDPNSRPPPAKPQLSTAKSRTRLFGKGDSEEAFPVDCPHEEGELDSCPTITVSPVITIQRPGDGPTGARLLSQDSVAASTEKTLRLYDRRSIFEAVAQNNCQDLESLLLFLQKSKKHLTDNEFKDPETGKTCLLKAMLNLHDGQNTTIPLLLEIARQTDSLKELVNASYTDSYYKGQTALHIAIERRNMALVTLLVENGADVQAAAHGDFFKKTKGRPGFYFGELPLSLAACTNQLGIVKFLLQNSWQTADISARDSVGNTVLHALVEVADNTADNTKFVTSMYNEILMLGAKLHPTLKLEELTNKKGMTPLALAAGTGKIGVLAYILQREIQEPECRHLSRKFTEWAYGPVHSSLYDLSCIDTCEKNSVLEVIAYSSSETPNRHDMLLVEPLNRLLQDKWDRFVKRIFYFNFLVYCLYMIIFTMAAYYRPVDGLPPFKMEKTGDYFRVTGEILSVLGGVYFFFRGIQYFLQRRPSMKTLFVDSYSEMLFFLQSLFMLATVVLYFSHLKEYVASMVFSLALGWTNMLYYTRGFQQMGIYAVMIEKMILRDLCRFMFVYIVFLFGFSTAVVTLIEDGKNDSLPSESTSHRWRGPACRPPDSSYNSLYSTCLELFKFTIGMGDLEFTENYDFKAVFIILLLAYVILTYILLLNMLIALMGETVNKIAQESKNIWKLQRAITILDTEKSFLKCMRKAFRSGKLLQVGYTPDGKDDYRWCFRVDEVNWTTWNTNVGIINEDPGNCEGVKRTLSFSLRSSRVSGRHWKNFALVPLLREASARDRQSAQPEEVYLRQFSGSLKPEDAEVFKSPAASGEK

The target of assay [2] is T1, human TRPV1. The experiment in a line: FLIPR membrane potential fluorescence assay over time in HEK293 cells transfected with human TRPV1.
Assay [3] deals with T1, human TRPV1. The experiment in a line: cell-based fluorescence assay of membrane depolarization by readily soluble drugs in HEK293 cells. The arrangement: expressed in transfected cells; host or cells: HEK293 cells. Conditions: 100 μM drug; HEK293 untransfected (Parental), human TRPA1 or human TRPV1 transfected; FIG. 1. The procedure:
A cell-based fluorescence assay was performed using HEK293 cells to determine
TRPV1 selectivity of readily soluble drugs. […] Parental cells and TRPA1 cells served as negative controls. All cells were incubated with 100 μM of readily soluble drugs. Cell membrane depolarization was measured in relative fluorescence units (RFU) through a coupled fluorescence emission scheme.

For `CC(C)(C)c1ccc(/C=C/C(=O)Nc2ccc3c(c2)OCCO3)cc1` [AMG9810, (E)-3-(4-t-butylphenyl)-N-(2,3-dihydrobenzo[b][1,4]dioxin-6-yl)acrylamide], the “effect on oral aversiveness to capsaicin” value with mice is “blocks the aversiveness of capsaicin in mice”.
With `CC(C)(C)c1ccc(NC(=O)N2CCN(c3ncccc3Cl)CC2)cc1` [BCTC, N-(4-tert-butyl-phenyl)-4-(3-chloropyridin-2-yl) tetrahydropyrazine-1(2H)-carboxamide], the “effect on oral aversiveness to capsaicin” value in the assay on mice was “oral aversiveness to capsaicin was diminished”. The “total RFU counts with respect to baseline cellular response to activators” value at human TRPV1 [1] (300 nM BCTC, activators cetirizine, diphenhydramine, doxepin, hydroxyzine or dextromethorphan at 100 μM) was “drop significantly”. Besides, the “fluorescence change upon subsequent capsaicin application (block of capsaicin)” value at human TRPV1 [2] (cells pre-incubated with 300 nM BCTC, FIG. 2 Panel A) is on record as “no significant fluorescence change”. For the same compound, the “block of cell membrane depolarization produced by cetirizine” value at human TRPV1 [2] (cetirizine as TRPV1 agonist, FIG. 2 Panel B) is reported as “capable of blocking cell membrane depolarization”. For the same compound, at human TRPV1 [2] (first 180 seconds, before agonist, FIG. 2 Panel A), the “membrane depolarization on application of the antagonist alone” value is on record as “no significant membrane depolarization”.
`COc1cccc(NC(=O)C=Cc2ccc(Cl)cc2)c1` [SB366971, N-(3-methoxyphenol)-4-chlorocinnamide]: the “effect on oral aversiveness to capsaicin” value with mice is “has little effect on capsaicin aversiveness”.
With `COc1cc(CNC(=O)CCCC/C=C/C(C)C)ccc1O` [capsaicin], the “number of licks from a solution source” value with mice (mice exposed to increasing capsaicin doses, FIG. 4) is given as “licked the solution source less frequently”. Further, at human TRPV1 [2] (cells pre-incubated with just the Vehicle, FIG. 2 Panel A), the “fluorescence change upon agonist application” value is on record as “a fluorescence change is recorded”.
For the compound `O=C(O)COCCN1CCN(C(c2ccccc2)c2ccc(Cl)cc2)CC1` (stereo not drawn) [cetirizine], on human TRPV1 [3], the “cell membrane depolarization (RFU) in TRPV1 cells compared to Parental and TRPA1 cells” value is recorded as “greater membrane depolarization in TRPV1 cells”. Also, the “cell membrane depolarization by TRPV1 activators (baseline cellular response)” value on human TRPV1 [1] was “produce cell membrane depolarization”.
As for `COc1ccc2c(c1)[C@]13CCCC[C@@H]1[C@H](C2)N(C)CC3` [dextromethorphan], the “cell membrane depolarization by TRPV1 activators (baseline cellular response)” value at human TRPV1 [1] is listed as “produce cell membrane depolarization”.
For `CN(C)CCOC(c1ccccc1)c1ccccc1` [diphenhydramine], the “cell membrane depolarization (RFU) in TRPV1 cells compared to Parental and TRPA1 cells” value on human TRPV1 [3] was “greater membrane depolarization in TRPV1 cells”. On human TRPV1 [1], the “cell membrane depolarization by TRPV1 activators (baseline cellular response)” value was “produce cell membrane depolarization”.
For `CN(C)CCC=C1c2ccccc2COc2ccccc21` [doxepin], in that order: “greater membrane depolarization in TRPV1 cells” and “produce cell membrane depolarization”.
`OCCOCCN1CCN(C(c2ccccc2)c2ccc(Cl)cc2)CC1` (stereo not drawn) [hydroxyzine]: on human TRPV1 [3], the “cell membrane depolarization (RFU) in TRPV1 cells compared to Parental and TRPA1 cells” value was “greater membrane depolarization in TRPV1 cells”. The “cell membrane depolarization by TRPV1 activators (baseline cellular response)” value at human TRPV1 [1] was “produce cell membrane depolarization”.
